Test results published in US11214594B2, “Antimicrobial peptide having synergistic antibacterial effect with antibiotics on multidrug resistant bacteria, and use thereof” (priority 2016, dated 2022).
Values after ≈ are worked out from the molar mass of the structure shown. Like-named read-outs stand apart in the source and are kept apart here. Where a SMILES comes first, the peptide text is derived from it. [ ]: non-standard residue; d: D form.

Key:
MDRST 8007 = test: Minimal inhibitory concentration (MIC), single agent; assay type: cell-based, Salmonella typhimurium; conditions: agent alone
In short: (§1)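 Each strain is brought to 2×10^6 CFU in nutrient-sufficient Mueller-Hinton medium and dispensed into wells. Peptide solutions, stepwise diluted 2:1 in the same medium, are then added. The minimal concentration preventing growth gives the MIC.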

MDRAB 12035 = test: MIC of antimicrobial peptide during combined treatment with antibiotic; assay type: cell-based, Acinetobacter baumannii
In short: (§2)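 Strains in MH medium at 2×10^6 CFU/ml were mixed with peptide diluted stepwise (2:1) from its MIC, then antibiotic dilutions in MH medium were added to give the antibiotic MIC. The reversed set-up, peptide titrated against fixed antibiotic, gave the peptide MIC.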

A. baumannii [1] = test: as above; assay type: cell-based, Acinetobacter baumannii
In short: as §2

S. epidermidis = test: microbe, parasite or virus in culture; assay type: cell-based, Staphylococcus epidermidis
In short: as §1

A. baumannii [2] = test: MIC of antibiotic during combined treatment with antimicrobial peptide; assay type: cell-based, Acinetobacter baumannii; conditions: for Antibiotic MIC, Erythromycin / Antibiotic MIC, Linezolid / Antibiotic MIC, Vancomycin: A. baumannii
In short: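 Checkerboard-type MIC of peptide–antibiotic mixtures in MH medium: the antibiotic was serially diluted in MH medium and added to wells, then the reversed arrangement was also tested.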

MDREC 1229 = assay type: cell-based, Escherichia coli
In short: as §2

[3] = erythromycin 4 μg/ml (Conc./MIC 1/8)
[4] = erythromycin 8 μg/ml (Conc./MIC 1/4)
[5] = erythromycin 16 μg/ml (Conc./MIC 1/2)
[6] = erythromycin 32 μg/ml (Conc./MIC 1)
[7] = linezolid 64 μg/ml (Conc./MIC 1/8)
[8] = linezolid 512 μg/ml (Conc./MIC 1)
[9] = vancomycin 512 μg/ml (Conc./MIC 1/2)
[10] = vancomycin 1024 μg/ml (Conc./MIC 1)
[11] = combined with peptide at 1 μg/ml
[12] = combined with peptide at 2 μg/ml
[13] = combined with peptide at 4 μg/ml
[14] = combined with peptide at 6 μg/ml
[15] = combined with peptide at 8 μg/ml
[16] = combined with peptide at 16 μg/ml
[17] = combined with peptide at 32 μg/ml
[18] = combined with peptide at 64 μg/ml

SMILES: CC[C@H](C)[C@H](NC(=O)[C@H](CCCCN)NC(=O)[C@H](Cc1c[nH]c2ccccc12)NC(=O)[C@@H](N)CCCNC(=N)N)C(=O)N[C@@H](Cc1ccccc1)C(=O)N[C@@H](CCCCN)C(=O)N[C@@H](CCCCN)C(=O)N[C@H](C(=O)N[C@H](CCCCN)C(=O)N[C@@H](CCCCN)C(=O)N[C@@H](CC(C)C)C(=O)N[C@@H](CC(C)C)C(=O)N[C@@H](Cc1c[nH]cn1)C(=O)N[C@@H](CO)C(=O)N[C@@H](C)C(=O)N[C@@H](CCCCN)C(=O)N[C@@H](CCCCN)C(=O)N[C@@H](Cc1c[nH]c2ccccc12)C(N)=O)[C@@H](C)CC [PapMA-16, RWK IFK KIk KLL HSA KKW-NH2] (H-RWKIFKKI[dK]KLLHSAKKW-NH2; N-terminus assumed)
- Minimal inhibitory concentration MIC (MDRST 8007): 64 mg/L (≈ 27.4 µM)
- Peptide MIC during treatment with erythromycin (MDRAB 12035; [3]): 4 mg/L
- Peptide MIC during treatment with erythromycin (MDRAB 12035; [4]): 4 mg/L
- Peptide MIC during treatment with erythromycin (MDRAB 12035; [5]): 4 mg/L
- Peptide MIC during treatment with erythromycin (MDRAB 12035; [6]): 0 mg/L
- Peptide MIC during treatment with linezolid (MDRAB 12035; [7]): 4 mg/L
- Peptide MIC during treatment with linezolid (MDRAB 12035; [8]): 0 mg/L
- Peptide MIC during treatment with linezolid (MDRAB 12035; linezolid […] (Conc./MIC 1/2)): 1 mg/L
- Peptide MIC during treatment with linezolid (MDRAB 12035; linezolid […] (Conc./MIC 1/4)): 4 mg/L
- Peptide MIC during treatment with vancomycin (MDRAB 12035; [9]): 2 mg/L
- Peptide MIC during treatment with vancomycin (MDRAB 12035; [10]): 1 mg/L
- Peptide MIC during treatment with vancomycin (MDRAB 12035; vancomycin […] (Conc./MIC 1/4)): 4 mg/L
- Peptide MIC during treatment with vancomycin (MDRAB 12035; vancomycin […] (Conc./MIC 1/8)): 8 mg/L
- Peptide MIC during treatment with antibiotic (A. baumannii [1]; [3]): 4 mg/L
- Peptide MIC during treatment with antibiotic (A. baumannii [1]; [4]): 4 mg/L
- Peptide MIC during treatment with antibiotic (A. baumannii [1]; [5]): 2 mg/L
- Peptide MIC during treatment with antibiotic (A. baumannii [1]; [6]): 0 mg/L
- Peptide MIC during treatment with antibiotic (A. baumannii [1]; linezolid 32 μg/ml (Conc./MIC 1/8)): 8 mg/L
- Peptide MIC during treatment with antibiotic (A. baumannii [1]; linezolid 64 μg/ml (Conc./MIC 1/4)): 8 mg/L
- Peptide MIC during treatment with antibiotic (A. baumannii [1]; linezolid […] (Conc./MIC 1)): 0 mg/L
- Peptide MIC during treatment with antibiotic (A. baumannii [1]; linezolid […] (Conc./MIC 1/2)): 4 mg/L
- Peptide MIC during treatment with antibiotic (A. baumannii [1]; [9]): 0.25 mg/L
- Peptide MIC during treatment with antibiotic (A. baumannii [1]; [10]): 0 mg/L
- Peptide MIC during treatment with antibiotic (A. baumannii [1]; vancomycin […] (Conc./MIC 1/4)): 0.5 mg/L
- Peptide MIC during treatment with antibiotic (A. baumannii [1]; vancomycin […] (Conc./MIC 1/8)): 2 mg/L
- Minimal inhibitory concentration MIC (S. epidermidis): >128 mg/L
- Synergistic effect of antibacterial activity with existing antibiotics compared with PapMA-1 (A. baumannii [2]; A. baumannii and MDRAB 12035): level similar to that of PapMA-1 peptide
- Antibiotic MIC, Erythromycin (A. baumannii [2]; [11]): 32 mg/L
- Antibiotic MIC, Linezolid (A. baumannii [2]; [11]): >128 mg/L
- Antibiotic MIC, Vancomycin (A. baumannii [2]; [11]): >128 mg/L
- Antibiotic MIC, Erythromycin (A. baumannii [2]; [12]): 16 mg/L
- Antibiotic MIC, Linezolid (A. baumannii [2]; [12]): >128 mg/L
- Antibiotic MIC, Vancomycin (A. baumannii [2]; [12]): 128 mg/L
- Antibiotic MIC, Erythromycin (A. baumannii [2]; [13]): 8 mg/L
- Antibiotic MIC, Linezolid (A. baumannii [2]; [13]): 128 mg/L
- Antibiotic MIC, Vancomycin (A. baumannii [2]; [13]): 64 mg/L
- Antibiotic MIC, Erythromycin (A. baumannii [2]; [14]): 1 mg/L
- Antibiotic MIC, Linezolid (A. baumannii [2]; [14]): 32 mg/L
- Antibiotic MIC, Vancomycin (A. baumannii [2]; [14]): 32 mg/L
- Antibiotic MIC, Erythromycin (A. baumannii [2]; [15]): 0.5 mg/L
- Antibiotic MIC, Linezolid (A. baumannii [2]; [15]): 16 mg/L
- Antibiotic MIC, Vancomycin (A. baumannii [2]; [15]): 16 mg/L
- Antibiotic MIC, Erythromycin (A. baumannii [2]; [16]): 0.25 mg/L
- Antibiotic MIC, Linezolid (A. baumannii [2]; [16]): 8 mg/L
- Antibiotic MIC, Vancomycin (A. baumannii [2]; [16]): 8 mg/L
- Antibiotic MIC, Erythromycin (A. baumannii [2]; [17]): 0 mg/L
- Antibiotic MIC, Linezolid (A. baumannii [2]; [17]): 0 mg/L
- Antibiotic MIC, Vancomycin (A. baumannii [2]; [17]): 0 mg/L
- Antibiotic MIC, Erythromycin (A. baumannii [2]; [18]): 0 mg/L
- Antibiotic MIC, Linezolid (A. baumannii [2]; [18]): 0 mg/L
- Antibiotic MIC, Vancomycin (A. baumannii [2]; [18]): 0 mg/L
- Peptide MIC during treatment with antibiotic (MDREC 1229; erythromycin 32 μg/ml (Conc./MIC 1/8)): 4 mg/L
- Peptide MIC during treatment with antibiotic (MDREC 1229; erythromycin 64 μg/ml (Conc./MIC 1/4)): 2 mg/L
- Peptide MIC during treatment with antibiotic (MDREC 1229; erythromycin […] (Conc./MIC 1)): 0 mg/L
- Peptide MIC during treatment with antibiotic (MDREC 1229; erythromycin […] (Conc./MIC 1/2)): 2 mg/L
- Peptide MIC during treatment with antibiotic (MDREC 1229; [7]): 4 mg/L
- Peptide MIC during treatment with antibiotic (MDREC 1229; [8]): 0 mg/L
- Peptide MIC during treatment with antibiotic (MDREC 1229; linezolid […] (Conc./MIC 1/2)): 1 mg/L
- Peptide MIC during treatment with antibiotic (MDREC 1229; linezolid […] (Conc./MIC 1/4)): 2 mg/L
- Peptide MIC during treatment with antibiotic (MDREC 1229; [9]): 2 mg/L
